From paper PMC9448371, “Synthesis and biological activity evaluation of 3-(hetero) arylideneindolin-2-ones as potential c-Src inhibitors” (Journal of Enzyme Inhibition and Medicinal Chemistry, 2022)
Entries after “also recorded” stand apart in the source; their conditions may differ.

How the values were obtained:
c-Src = target: T1, c-Src (Homo sapiens, UniProt P12931); experiment: c-Src kinase inhibition assay (ADP-Glo Kinase Assay); format: biochemical; details: Table 3; for inhibition at 100 µM: read-out: % Inhibition 100 µM; for IC50: read-out: ID50 (the source's name)
T1 construct: His6 (N); purchased Merck-Millipore 14–326
Protocol: To avoid peptide adsorption to the plastic surface, protein low-binding tubes were used. ADP-Glo Kinase Assay (Promega) was then used to detect kinase activity accordingly with manufacturer’s instruction with minor modifications. In details, reactions were transferred to white 384 well-plates and stopped by adding 10 µL of ADP-Glo Reagent (Promega) for 50 min at rt. 20 μL of Detection Reagent (Promega) was then added for 30 min and the reaction read using GloMax Discover microplate reader (Promega). Data were plotted using GraphPad Prism 5.0. […] Compounds tested were assumed to act as fully ATP-competitive inhibitors. Therefore, Ki values were calculated accordingly to Equation (2).

[1] = tested on: human MCF7 breast cancer cell line; experiment: Cytotoxicity, growth inhibition MTS assay; format: cell-based; details: mean ± SD, triplicate; for IC50: Homo sapiens, MCF7, 72 h exposure, read-out: MCF-7 (IC50); for MCF-7 (IC50, μM): 72 h exposure
Protocol: Cytotoxicity experiments were carried out using the human MCF7 breast cancer cell line (ATCC HTB-22). […] Compound potency was determined by a growth inhibition assay (CellTiter 96® Aqueous One Solution Cell Proliferation Assay MTS, Promega). 24 h after seeding in a 96-well plate, cells were exposed to the compounds (concentration range 1–100 µM) and 72 h later, 20 µL of 3–(4,5-dimethylthiazol-2-yl)-5–(3-carboxymethoxyphenyl)-2–(4-sulfophenyl)-2H-tetrazolium salt (MTS) was added to each well. […] Experiments were performed in triplicate.

[2] = 10 µM compound, tested as E/Z mixtures
[3] = 100 µM compound, tested as E/Z mixtures
[4] = calculated from ID50 assuming fully ATP-competitive inhibition

T1 sequence (P12931 whole entry): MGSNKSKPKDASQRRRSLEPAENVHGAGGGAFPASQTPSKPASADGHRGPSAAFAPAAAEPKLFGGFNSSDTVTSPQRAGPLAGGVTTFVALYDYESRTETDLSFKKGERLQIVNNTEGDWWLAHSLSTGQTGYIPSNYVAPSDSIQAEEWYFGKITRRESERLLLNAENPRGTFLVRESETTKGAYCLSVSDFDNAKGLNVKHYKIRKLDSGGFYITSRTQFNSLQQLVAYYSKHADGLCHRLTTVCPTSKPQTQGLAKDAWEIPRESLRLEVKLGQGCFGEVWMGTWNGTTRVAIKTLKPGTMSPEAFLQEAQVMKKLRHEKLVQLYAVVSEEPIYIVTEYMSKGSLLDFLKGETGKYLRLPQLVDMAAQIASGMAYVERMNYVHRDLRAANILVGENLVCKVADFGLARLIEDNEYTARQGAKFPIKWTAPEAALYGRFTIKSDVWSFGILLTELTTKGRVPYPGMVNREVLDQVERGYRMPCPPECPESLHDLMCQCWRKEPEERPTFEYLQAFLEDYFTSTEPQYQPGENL

Compound | inhibition at 10 µM (c-Src; [2]) | inhibition at 100 µM (c-Src; [3]) | ID50 (c-Src; 100 μM ATP) | IC50 (c-Src; 100 μM ATP) | Ki (c-Src; [4]) | Ki (ATP competitive) (c-Src; [4]) | melting point | IC50 [1] | % Inhibition 100 µM (c-Src; 100 µM compound, tested as E/Z mixtures, 100 µM) | MCF-7 (IC50, μM) [1] | % Inhibition 10 µM (c-Src; 10 µM compound, tested as E/Z mixtures, listed as C00033, 10 µM)
O=C1Nc2cc(Cl)ccc2C1=Cc1ccc([N+](=O)[O-])cc1 [Compound 33, 6-chloro-3–(4-nitrobenzylidene)indolin-2-one] | 53 ± 18.1% | 69.94 ± 0.19% | single-digit micromolar | 2.43 µM | 1.64 µM | single-digit micromolar | 322 to 323 °C (dec.) | > 100 µM | – | – | –
O=C1Nc2cc(Cl)ccc2C1=Cc1ccc2[nH]ccc2c1 [Compound 50, 3-((1H-indol-5-yl)methylene)-6-chloroindolin-2-one] | 41.2 ± 1.12% | 96.1 ± 1.42% | – | 9.14 µM | 6.17 µM | – | 238 to 239 °C | 68 ± 2 µM | – | – | –
CCOC(=O)COc1ccc(C=C2C(=O)Nc3cc(Cl)ccc32)cc1 [Compound 43, Ethyl 2–(4-((6-chloro-2-oxoindolin-3-ylidene)methyl)phenoxy) acetate] | 71.7 ± 2.27% | 80.8 ± 6.47% | – | 3.24 µM | – | – | 158 to 159 °C | 85 ± 2 µM | good activity | – | –
O=C1Nc2cc(Cl)ccc2C1=Cc1cnc(Br)s1 [Compound 49, 3-((2-bromothiazol-5-yl)methylene)-6-chloroindolin-2-one] | 53.9 ± 26.6% | 76.8 ± 9.22% | – | > 10 µM | – | – | 262 to 263 °C (dec.) | 33 ± 2 µM | – | potency comparable to Dasatinib; also recorded: cytotoxicity comparable to that of the reference compound Dasatinib | –
Cc1nc(Nc2ncc(C(=O)Nc3c(C)cccc3Cl)s2)cc(N2CCN(CCO)CC2)n1 [Dasatinib, reference compound] | – | – | – | – | – | – | – | 27 ± 1 µM | – | – | –
CN(C)c1ccc(C=C2C(=O)Nc3cc(Cl)ccc32)cc1 [Compound 34, 6-chloro-3–(4-(dimethylamino)benzylidene)indolin-2-one] | 85% | 75.7 ± 7.63% | – | 0.71 µM | 0.48 µM | – | 253 to 254 °C | > 100 µM | – | did not show any cytotoxic activity | 85.35 ± 6.98%
